{
  "source": "patent US20200038514A1",
  "about": "“FOLATE CONJUGATE FOR USE IN TARGETING TUMOR ASSOCIATED MACROPHAGES” (ENDOCYTE, INC., priority 2016, published 2020)",
  "key": {"4T1-C12 tumor cells": {"test_system": "4T1-C12 tumor cells", "assay": "XTT cell viability assay, 4T1-C12", "format": "cell-based, mouse", "conditions": "FRα-positive 4T1-C12, 2 hours exposure, 96 hour chase", "description": "(§1) The FRα− and FRα+ expressing cell lines utilized to evaluate Conjugate 5 activity in-vitro and/or ex-vivo studies were (1) 4T1p, a mouse breast cancer cell line that resembles triple negative breast cancer in humans, (2) 4T1-C12, 4T1p stably transfected with a mouse FRa, and (3) IGROV1, a human ovarian carcinoma cell line that expresses the human FRα. 4T1p and 4T1-C12 cells were grown respectively in a folate-replete or folate-free RPMI1640 medium (Gibco BRL) (FFRPMI) containing 10% heat-inactivated fetal calf serum (HIFCS) and antibiotics, and maintained under a 5% CO2 atmosphere using standard cell culture techniques. IGROV1 cells were grown in the same medium as 4T1-C12.\n(§2) 4T1p and 4T1-C12 tumor cells in 96-well plates (20,000 cells/well) were treated with 10-fold serial dilutions of Conjugate 5 (100 nM) in FFRPMI medium. After a 2 hour exposure, the drug-containing media were replaced and the cells were washed and allowed to incubate further for 96 hours. The cell viability was assessed by adding XTT (2,3-bis(2-methoxy-4-nitro-5-sulfo-phenyl)-2H-tetrazolium-5-carboxanilide) to the culture medium for 2 hours following the manufacturer's instructions. All results were expressed as % absorbance (minus background) relative to the untreated control cells."}, "ST502 TNBC PDX tumors": {"test_system": "ST502 TNBC PDX tumors", "assay": "In vivo activity against triple negative breast tumors (FIG. 5)", "set-up": "species or system mice", "description": "(§3) Mice were maintained and tumor volumes were measures according to Method 3.\n(§4) Primary human TNBC model ST502 (2-4 mm in diameter) or primary human TNBC model ST738 (2-4 mm in diameter) were inoculated subcutaneously at the right flank of each mouse. Mice were randomized into experimental groups of 7 mice each and test articles were injected through the lateral tail vein under sterile conditions in a volume of […] of phosphate-buffered saline (PBS)."}, "[1]": {"test_system": "KB-CR2000 (platin resistant) tumor", "assay": "In vivo activity against platinum resistant tumors", "set-up": "species or system mice", "conditions": "Conjugate 5 0.5 μmol/kg SIW two weeks; EC1456 2.0 μmol/kg BIW two weeks; n=4", "description": "as §3\nKB-CR2000 (platin resistant) tumor cells were inoculated subcutaneously at the right flank of each mouse. Mice were dosed through the lateral tail vein under sterile conditions in a volume of […] of phosphate-buffered saline (PBS)."}, "[2]": {"test_system": "intraperitoneal ID8-C115 tumor", "assay": "Conjugate 5 plus anti-CTLA-4 combination study, survival", "format": "in vivo, mice", "conditions": "Conjugate 5 i.v. 0.1 μmol/kg BIW×6 doses; EC1456 i.v. 2 μmol/kg BIW×6 doses, from day 7; anti-CTLA-4 i.p. 250 μg/dose BIW×5 doses from day 11; untreated ~46 days; 5 animals", "description": "To test the effect of Conjugate 5 alone and in combination with anti-CTLA-4 antibody, ID8-C115 tumor cells (5×10^6 cells per animal in 1% syngeneic mouse serum/folate-deficient RPMI1640 medium) were inoculated intraperitoneally 13 days post the date of arrival and start of the folate deficient diet. […] The anti-CTLA-4 antibody dosing solution was prepared by diluting the stock solution (BioXcell, Clone UC10-4F10-11) to 1.25 mg/mL in PBS, pH 7.4. Anti-CTLA-4 (250 μg/dose) was i.p. administered BIW for a total of 5 doses starting 11 days after the tumor implant. […] Mice were weighed 3 times/week and assessed for any clinical sign of swollen bellies indicative of ascites formation and for the evidence of toxicity such as respiratory distress, mobility, weight loss, diarrhea, hunched posture, and failure to eat. Once the animals developed ascites, they were monitored daily and euthanized when ascites became severe (rounded and walking on tip toes). Healthy animals from the same cohort of mice were used as controls for normal weight gain."}, "4T1 TAMs": {"test_system": "4T1 TAMs", "assay": "Activity against 4T1 TAMs in vivo (FACS of tumors)", "set-up": "species or system rats", "excerpt": "Female Foxn1^nu nude rats (Harlan, Inc., Indianapolis, Ind.) on a folate-deficient diet were subcutaneously implanted with 1×10^6 4 T1 tumor cells in the mammary region. When the tumors reached ˜1088 mm^3, the animals (n=3) were intravenously dosed with nothing (Control), 254 nmol/kg of Conjugate 5, 254 nmol/kg of Conjugate 5 plus 127 μmol/kg of EC0923, or 127 μmol/kg of EC0923. Four days later, the entire tumors were harvested, enzymatically digested, and subjected to FACS analysis. The tumor cell suspensions were stained for macrophage markers (CD163, CD11b), cell viability (propidium iodide), and late and early apoptosis (Annexin V)."}, "4T1p tumor cells": {"test_system": "4T1p tumor cells", "assay": "XTT cell viability assay, 4T1p", "format": "cell-based, mouse", "conditions": "2 hours exposure up to 100 nM, 96 hour chase", "description": "as §1, §2"}, "TNBC PDX tumor": {"test_system": "TNBC PDX tumor", "assay": "In vivo activity against triple negative breast tumors (FIG. 10)", "set-up": "species or system mice", "conditions": "Conjugate 5 0.27 μmol/kg BIW two weeks; erubulin mesylate 1.0 μmol/kg SIW two weeks", "description": "as §3, §4"}, "ST070 ovarian PDX tumors": {"test_system": "ST070 ovarian PDX tumors", "assay": "In vivo activity against ovarian tumors", "set-up": "species or system mice", "description": "as §3\nPrimary human Ovarian model ST070 fragments (2-4 mm in diameter) were inoculated subcutaneously at the right flank of each mouse. Mice were randomized into experimental groups of 7 mice each and test articles were injected through the lateral tail vein under sterile conditions in a volume of […] of phosphate-buffered saline (PBS)."}, "Calf thymus DNA (CT-DNA)": {"test_system": "Calf thymus DNA (CT-DNA)", "assay": "DNA crosslinking assay (ethidium bromide fluorescence)", "format": "biochemical", "conditions": "1.1 to 75 μM, 37° C. 2 hours", "description": "Calf thymus DNA (CT-DNA) was combined with increasing concentrations of Conjugate 5 (1.1 to 75 μM) or Conjugate 5+/−DTT. These solutions were incubated at 37° C. for 2 hours. The solutions were then mixed with ethidium bromide and incubated for 2 hours at room temperature. Fluorescence (Ex: 535 nm, Em: 605 nm) from these samples was measured on the Fluoroskan II fluorimeter. Next, the samples were heated to 104° C. for 5 minutes, cooled on ice for 5 minutes, kept at RT for 15 minutes and fluorescence measured. % crosslinking of each sample was calculated using the fluorescence values from the positive and negative controls."}, "KB tumor": {"test_system": "KB tumor", "assay": "In vivo activity against KB tumors in mice", "conditions": "0.5 μmol/kg once a week for two weeks", "excerpt": "Treatment with 0.5 μmol/kg of Conjugate 5, once a week for two weeks also produced maximal anti-tumor activity with 100% cures. Change in weight is shown in FIG. 2B for test mice dosed at 0.5 μmol/kg Conjugate 5 SIW for two weeks (▴) compared to untreated control (▪)."}},
  "data": [
    {"smiles": "C=C1C[C@H]2C=Nc3cc(OCCCCCOc4cc(N)c(C(=O)N5CC(=C)C[C@H]5C5OCCN5C(=O)OCC(C)(C)SSCCC(=O)NCCNC(=O)CCOCCOCCOCCOCCNC(=O)CCN5C(=O)CC(SC[C@H](NC(=O)[C@H](CC(=O)O)NC(=O)[C@H](CC(=O)O)NC(=O)[C@H](CCCNC(=N)N)NC(=O)[C@H](CC(=O)O)NC(=O)CC[C@H](NC(=O)c6ccc(NCc7cnc8nc(N)[nH]c(=O)c8n7)cc6)C(=O)O)C(=O)O)C5=O)cc4OC)c(OC)cc3C(=O)N2C1", "note": "(stereo partly shown) [Conjugate 5]", "values": [
      {"measurement": "activity in the presence of excess folic acid", "setting": "4T1-C12 tumor cells; excess folic acid", "result": "partially reversible"},
      {"measurement": "IC50", "setting": "4T1-C12 tumor cells; read-out: relative IC50, inhibition of cell proliferation", "result": "~8.7", "unit": "nM"},
      {"measurement": "cure (number of mice)", "setting": "ST502 TNBC PDX tumors; 0.3 μmol/kg BIW for two weeks, n=7", "result": 7},
      {"measurement": "TNBC PDX tumor size compared to untreated control", "setting": "ST502 TNBC PDX tumors; Conjugate 5 0.3 μmol/kg BIW two weeks, EC1456 2.0 μmol/kg BIW two weeks", "result": "decreased TNBC PDX tumor size"},
      {"measurement": "cure (number of mice)", "setting": "[1]", "result": 4},
      {"measurement": "median survival time", "setting": "[2]", "result": "~77", "unit": "days post tumor implant"},
      {"measurement": "anti-TAM activity in presence of 500-fold excess of EC0923", "setting": "4T1 TAMs; 254 nmol/kg Conjugate 5 plus 127 μmol/kg EC0923, single i.v. dose", "result": "not blocked"},
      {"measurement": "effect against FR− cell populations including CD163-CD11b+ 4T1 TAMs and 4T1 tumor cells", "setting": "4T1 TAMs; 254 nmol/kg, single i.v. dose", "result": "no effect"},
      {"measurement": "effect on CD163+CD11b+ TAM population in 4T1 tumors", "setting": "4T1 TAMs; single i.v. administration, Conjugate 5 254 nmol/kg, EC0923 127 μmol/kg, tumors harvested four days later, n=3", "result": "significantly decrease"},
      {"measurement": "activity against FRα-negative 4T1p tumor cell in-vitro", "setting": "4T1p tumor cells", "result": "completely inactive"},
      {"measurement": "TNBC PDX tumor size compared to untreated control", "setting": "TNBC PDX tumor", "result": "decreased TNBC PDX tumor size"},
      {"measurement": "cure (number of mice)", "setting": "ST070 ovarian PDX tumors; 0.5 μmol/kg SIW for two weeks, n=7", "result": 7},
      {"measurement": "ovarian PDX tumor size compared to untreated control", "setting": "ST070 ovarian PDX tumors; Conjugate 5 0.5 μmol/kg SIW, EC1456 4.0 μmol/kg SIW, paclitaxel 15 mg/kg SIW, two weeks", "result": "decreased ovarian PDX tumor size"},
      {"measurement": "DNA crosslinking, reduced form", "setting": "Calf thymus DNA (CT-DNA); treated with DTT", "result": "can then crosslink with DNA"},
      {"measurement": "DNA crosslinking, intact conjugate", "setting": "Calf thymus DNA (CT-DNA); without DTT", "result": "not able to crosslink DNA"},
      {"measurement": "cures", "setting": "KB tumor", "result": 100, "unit": "%"}
    ]}
  ]
}
